By AUC(0-inf) is commonly meant total exposure, with the tail of the curve extrapolated. A lower AUC(0-inf) goes with less exposure.

Series [1] can be described thus: Ratio of drug level in bronchoalveolar fluid to lung in Wistar rat at 500 ug, administered through pulmonary route under respiratory mode of 60 respirations per minute, 2 ml/kg tidal volume. The format is ADME. The note with it: in vivo, other.
Series [2] deals with Lung. Briefly: Mean transit time in Wistar rat lung at 500 ug, administered through systemic route under respiratory mode of 30 respirations per minute, 4 ml/kg tidal volume. The following applies: in vivo, other. The class given is ADME, tissue-based.
Series [3] relates to Lung. Briefly: Drug level in Wistar rat lung at 500 ug, administered through systemic route. The note with it: in vivo. The format is ADME, tissue-based.
Series [4] in a line: Ratio of drug level in lung to efferent fluid in Wistar rat at 500 ug, administered through systemic route under respiratory mode of 30 respirations per minute, 4 ml/kg tidal volume. The format is ADME. The following applies: in vivo, other.
Series [5] can be described thus: Ratio of drug level in lung to efferent fluid in Wistar rat at 500 ug, administered through pulmonary route under respiratory mode of 30 respirations per minute, 4 ml/kg tidal volume. The class given is ADME. The following applies: in vivo, inhaled_or_intranasal.
Series [6] can be described thus: Ratio of drug level in lung to efferent fluid in Wistar rat at 500 ug, administered through pulmonary route under respiratory mode of 60 respirations per minute, 2 ml/kg tidal volume. The format is ADME. The following applies: in vivo, inhaled_or_intranasal.
Series [7] can be described thus: Ratio of drug level in bronchoalveolar fluid to lung in Wistar rat at 500 ug, administered through pulmonary route under respiratory mode of 30 respirations per minute, 4 ml/kg tidal volume. The class given is ADME. The following applies: in vivo, inhaled_or_intranasal.
A short description of series [8]: AUC (0 to infinity) in Wistar rat lung at 500 ug, administered through systemic route under respiratory mode of 30 respirations per minute, 4 ml/kg tidal volume. The class given is ADME. Also noted: dose 500 ug, time infinity.
Series [9] can be described thus: Ratio of drug level in bronchoalveolar fluid to efferent fluid in Wistar rat at 500 ug, administered through pulmonary route under respiratory mode of 30 respirations per minute, 4 ml/kg tidal volume. The format is ADME. The note with it: in vivo, inhaled_or_intranasal.
The nature of series [10]: Ratio of drug level in lung to efferent fluid in Wistar rat at 500 ug, administered through systemic route under respiratory mode of 60 respirations per minute, 2 ml/kg tidal volume. The class given is ADME. The note with it: in vivo, other.
A short description of series [11]: Drug level in Wistar rat bronchoalveolar fluid at 500 ug, administered through systemic route. The format is ADME, tissue-based, Lung. The note with it: in vivo.
Series [12] in a line: AUC (0 to infinity) in Wistar rat lung at 500 ug, administered through systemic route under respiratory mode of 60 respirations per minute, 2 ml/kg tidal volume. Also noted: dose 500 ug, time infinity. The format is ADME.
Series [13] deals with Lung. The series can be described thus: Mean transit time in Wistar rat lung at 500 ug, administered through systemic route under respiratory mode of 60 respirations per minute, 2 ml/kg tidal volume. The format is ADME, tissue-based. The following applies: in vivo, other.
The nature of series [14]: Ratio of drug level in bronchoalveolar fluid to efferent fluid in Wistar rat at 500 ug, administered through pulmonary route under respiratory mode of 60 respirations per minute, 2 ml/kg tidal volume. The format is ADME. The note with it: in vivo, inhaled_or_intranasal.

As for `CN[C@H](CC(C)C)C(=O)N[C@H]1C(=O)N[C@@H](CC(N)=O)C(=O)N[C@H]2C(=O)N[C@H]3C(=O)N[C@H](C(=O)N[C@H](C(=O)O)c4cc(O)cc(O)c4-c4cc3ccc4O)[C@H](O)c3ccc(c(Cl)c3)Oc3cc2cc(c3O[C@@H]2O[C@H](CO)[C@@H](O)[C@H](O)[C@H]2O[C@H]2C[C@](C)(N)[C@H](O)[C@H](C)O2)Oc2ccc(cc2Cl)[C@H]1O` [VANCOMYCIN], the Ratio in [1] is listed as 4.69; in series [4], 0.5; in [5] it was 9.44; in series [6], more than 9.44; in series [7] it was 7.1; in series [9], 17.89. Besides, the values for the Ratio in series [10] and in series [14] were 0.49 and more than 17.89, respectively. In addition, the MTT stood at 0.78 min with Lung [2] and 0.47 min in the series with Lung [13]. In addition, the Drug uptake with Lung [3] worked out at 0.11 µg/g; in series [11], 0.1 µg/g. Further, the total exposure AUC(0-inf) is 2140 ng·h/mL in [8] and 1830 ng·h/mL in series [12].

The values are drawn from ChEMBL document CHEMBL1153839, “Pulmonary versus systemic delivery of antibiotics: comparison of vancomycin dispositions in the isolated rat lung” (Antimicrob Agents Chemother, 2007).
